We go through 4 compounds from patent US20200239957A1, “PREDICTION AND TREATMENT OF HEART FAILURE” (The Regents of the University of Colorado, a body corporate, priority 2013, published 2020).

Structures are written as SMILES.

The term inhibition denotes how much of the control response was suppressed.

For assay [1] the following is noted: heart failure patients, continuous intravenous treatment, cited from earlier work.
In assay [2] the test system is β-ARs. As to conditions: heart failure patients, continuous intravenous treatment; cited from earlier work.
The target of assay [3] is rtPDE3A (Homo sapiens, UniProt Q14432). The experiment in a line: PDE3 activity assay, cAMP hydrolysis with and without cilostazol. In kind it is biochemical. As to conditions: 0.1 μmol/L cilostazol; read-out: inhibition of rtPDE3A, submaximal (printed as IC44). As to the method:
cAMP-hydrolytic activity was quantified according to the method of Kincaid and Manganiello (1988) as described in detail previously (Movesian et al., 1991). Briefly, microsomal fractions were added to a reaction mixture containing 0.3 mol/L NaHEPES, 0.6 mmol/L EGTA, […] MgCl2 (pH 7.5) and 0.1 μmol/L [^3H]cAMP (Perkin Elmer, Boston, Mass.). cAMP hydrolysis occurred for 10 minutes at 30° C., then the reaction was stopped by the addition of 10.1 mmol/L unlabeled cAMP and […] unlabeled 5′AMP in 0.25 mol/L HCl. The reaction mixture was neutralized with NaOH. [^3H]5′AMP was converted to [^3H]adenosine by incubation with Crotalus atrox venom (30 mg/ml) for 30 minutes at 30° C. The reaction mixture was then applied to QAE-Sephadex columns, and [^3H]adenosine was eluted with water. Cyclic AMP hydrolysis in pmol/min/mg was determined by measuring [^3H]adenosine in the eluent. PDE activity was measured in the presence and absence of 0.1 μmol/L cilostazol, a concentration that inhibits rtPDE3A submaximally (IC44); PDE3 activity was calculated by dividing the difference in activity in the presence and absence of cilostazol by the fractional inhibition of PDE3 activity at this concentration.

Assay [4] deals with PDE3A promoter. The experiment in a line: PDE3A promoter (INS/DEL) luciferase reporter in transfected NRVMs. Format: cell-based, rat. As to conditions: for luciferase activity of the DEL promoter construct: DEL construct containing the CRE; for luciferase activity of the DEL promoter construct / up-regulation of PDE3A expression, INS construct (luciferase): 1 μmol/L dibutyryl cAMP or 5 μmol/L enoximone for 48 hours. Here is the method:
Neonatal rat ventricular myocytes (NRVMs) were prepared from the hearts of 2-day-old rat pups by enzymatic digestion as described (Simpson et al., 1982; Waspe et al., 1990; Singh et al., 2000).
Cloning of the PDE3A promoter region was performed using PCR primers that amplified the −1434/+440 region of the human promoter that contains the INS/DEL genotype. The resulting fragment was cloned in the Promega pGL3-basic vector using MluI and BglII sites as previously described (Sucharov et al., 2003). Cloning of the construct that lacks the cAMP response element (CRE) was done by amplifying the −1066/+440 region of the PDE3A promoter downstream from the CRE site.
Firefly luciferase plasmid DNA was transfected using the Lonza system as previously described (Sucharov et al., 2008). […] Luciferase activity was determined as previously described (Sucharov et al., 2003).
(In general: Reporter assays use an easily measured gene product as a stand-in for the process of interest.)

Sequence of rtPDE3A (Q14432 whole entry): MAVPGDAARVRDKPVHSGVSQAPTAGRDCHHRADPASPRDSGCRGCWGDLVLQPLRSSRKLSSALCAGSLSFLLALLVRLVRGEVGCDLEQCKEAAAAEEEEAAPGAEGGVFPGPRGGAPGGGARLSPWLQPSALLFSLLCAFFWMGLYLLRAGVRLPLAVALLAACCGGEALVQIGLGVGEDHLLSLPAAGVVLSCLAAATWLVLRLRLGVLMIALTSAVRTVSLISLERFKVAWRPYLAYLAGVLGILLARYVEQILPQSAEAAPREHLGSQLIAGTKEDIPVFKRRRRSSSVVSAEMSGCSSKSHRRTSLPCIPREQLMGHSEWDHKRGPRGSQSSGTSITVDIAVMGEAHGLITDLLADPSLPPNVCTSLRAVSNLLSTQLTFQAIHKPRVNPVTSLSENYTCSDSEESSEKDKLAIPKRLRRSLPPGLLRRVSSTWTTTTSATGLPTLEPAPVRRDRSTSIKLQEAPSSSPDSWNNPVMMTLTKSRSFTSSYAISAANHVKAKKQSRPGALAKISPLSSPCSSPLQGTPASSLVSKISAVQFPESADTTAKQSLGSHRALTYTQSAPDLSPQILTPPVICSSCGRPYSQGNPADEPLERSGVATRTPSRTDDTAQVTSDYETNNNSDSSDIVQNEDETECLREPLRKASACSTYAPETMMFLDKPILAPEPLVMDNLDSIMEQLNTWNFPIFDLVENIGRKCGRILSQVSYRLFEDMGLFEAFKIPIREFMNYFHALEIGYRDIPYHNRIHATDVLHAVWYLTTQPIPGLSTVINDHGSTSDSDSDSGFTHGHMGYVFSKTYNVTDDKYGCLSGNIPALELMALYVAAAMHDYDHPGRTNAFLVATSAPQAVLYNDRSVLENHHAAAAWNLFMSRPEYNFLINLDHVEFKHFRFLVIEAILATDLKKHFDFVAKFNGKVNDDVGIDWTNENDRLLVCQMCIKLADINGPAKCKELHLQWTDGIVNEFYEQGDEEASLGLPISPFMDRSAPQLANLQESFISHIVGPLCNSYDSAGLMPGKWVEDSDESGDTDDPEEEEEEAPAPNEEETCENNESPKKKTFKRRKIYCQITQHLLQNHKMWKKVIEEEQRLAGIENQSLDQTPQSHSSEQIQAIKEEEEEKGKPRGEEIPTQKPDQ

Regarding `Nc1cc(-c2ccncc2)c[nH]c1=O` [amrinone], the “cardiac output at 24 hours” value in assay [1] (24 hours) was “increase”. For the same compound, in assay [1] (72 hours), the “cardiac output by 72 hours” value was “return to baseline values”. Also, the “β-ARs in lymphocytes of treated patients” value in assay [2] is “Down-regulation and desensitization”.

For `O=C1CCc2cc(OCCCCc3nnnn3C3CCCCC3)ccc2N1` [cilostazol], the inhibition at 0.1 µM in assay [3] is 44%.

With `CCCC(=O)Nc1ncnc2c1ncn2[C@@H]1O[C@@H]2COP(=O)(O)O[C@H]2[C@H]1OC(=O)CCC` [dibutyryl cAMP], in assay [4], the “luciferase activity of the DEL promoter construct” value is given as “increased luciferase activity” and the “up-regulation of PDE3A expression, INS construct (luciferase)” value is given as “no evidence of up-regulation”. In assay [4] (DEL construct lacking the CRE (-1066/+440), 48 hours), the “cAMP-induced increase in promoter activity, DEL construct with CRE sequence deleted” value is recorded as “prevented”.

As for `CSc1ccc(C(=O)c2[nH]c(=O)[nH]c2C)cc1` [enoximone], in assay [4], the “luciferase activity of the DEL promoter construct” value is reported as “increased luciferase activity” and the “up-regulation of PDE3A expression, INS construct (luciferase)” value is reported as “no evidence of up-regulation”.
